The structures appear in SMILES notation.

The record followed here is US11324720B2, “Antiproliferative DNA polymerase inhibitor” (NEW YORK MEDICAL COLLEGE, priority 2018, dated 2022).

Assay type in all cases: cell-based, human
Data set [1] deals with BxPC-3 cells. Description: EdU incorporation by laser scanning cytometry. The note with it: 10 and 20 μM; 1 to 2 hours pre-incubation, then EdU pulse.
The test system of data set [2] is BxPC-3 cells. Description: DNA fiber fluorography dual labeling (IdU/CldU). The text has this: (§1) In our search for Pol δ inhibitors, we focused on the identification of inhibitors that can inhibit Pol δ when it is actively replicating DNA. DNA fiber fluorography with dual labeling technique^24 provides a possibility that we can analyze the effect of zelpolib on ongoing DNA replication at a single molecule level. Both IdU and CldU are halogenated thymidine analogs that can be incorporated into DNA. Subsequent DNA fiber spreading and antibody detection are used to directly visualize the replicated DNA fiber. The incorporation of IdU gives rise to red fibers and CldU produces green fibers with subsequent antibody detection^24. Therefore, in this assay, the cells were first incubated with IdU for 20 minutes in the absence of zelpolib (FIG. 3B) to establish ongoing DNA replication and the basal replication rates of each individual DNA fibers. Subsequently, CldU were added to cell culture either with or without simultaneous addition of zelpolib. DNA replication were allowed for an additional hour. […] In order to be certain that this inhibition was not cell line dependent, we conducted an identical experiment on a triple-negative breast cancer cell line as well. […] The DNA fibers (FIG. 3C) from a single field of view (FIG. 9) were realigned for visual comparison.
(§2) To analyze the effect of zelpolib, DNA fiber fluorography was used with dual labeling technique as reported. Cells were seeded in 6-well plates (Cellstar) and allowed to attach for 24 hours before pulse labeled with 25 μM IdU for 20 min. Subsequently, cells were washed three times with PBS and pulse labeled with 250 μM of CldU (Sigma) for 60 min in the presence or absence of zelpolib. Cell lysis and fiber spreading were conducted according to Schwab & Niedzwiedz. IdU and CldU were detected by primary mouse anti-BrdU antibody (BD biosciences, 1:25) and rat anti-BrdU antibody (Abcam, 1:200) and secondary fluorescent antibodies Alexa anti-mouse 594 (ThermoFisher scientific, 1:625) and Alexa anti-rat 488 (ThermoFisher scientific, 1:200). DNA fibers were imaged on fluorescence microscope and fiber lengths were measured using Image-J software. Statistics were calculated using GraphPad prism software.

Data set [3] relates to HCC1395 cells. Briefly: DNA fiber fluorography dual labeling (IdU/CldU). As to conditions: all three concentrations, zelpolib added with CldU for 60 min.
Source text: as §1, §2

Data set [4] deals with HCC1395 cells. Briefly: MTT assay with PARP inhibitors with or without zelpolib. As to conditions: 2.5 μM zelpolib, 48 hrs. On the procedure: However, there have been minimal clinical benefits for HR-proficient cancers^37-41. Since zelpolib can inhibit HR, we explored the effect of zelpolib in combination with PARP inhibitors on HR-proficient cancer cells. The hypothesis is that zelpolib will lead to an HR-defect through inhibition of Pol δ and render HR-proficient cells sensitive to PARP inhibition. […] The cells were treated with increasing concentrations of PARP inhibitor Niraparib (FIG. 5B) or Rucaparib (FIG. 5C) in the absence or presence of 2.5 μM zelpolib for 48 hrs. The number of cells were then analyzed by MTT assay.
Human cancer cells (5×10^3-7.5×10^3) were initially seeded in 96-well plates (Cellstar) containing 0.2 ml media per well. After 24 hrs, these cells were treated with variable concentrations drug combinations for 48-72 hrs. Subsequently, 4,5-dimethylthiazol-2-yl-2,5-diphenyltetrazolium bromide (MTT) (20 μl of 5 mg/ml) was added to each well for 3 hrs. Formazan crystals were then dissolved in 150 μl DMSO and optical density was read at 490 nm^25. All experiments were performed in triplicates. Results were analyzed by GraphPad Prism. Data represent mean value±SEM for each concentration of inhibitor combinations.
(Tetrazolium dyes change colour on reduction, which living cells bring about.)

Another data set concerns HEK 293T cells. Description: Two plasmid DR-GFP/I-SceI double strand break repair (homologous recombination) assay. The source says: In addition to being indispensable for the duplication of chromosomes, Pol δ also plays critical roles in various DNA repair pathways^32. It has been shown that Pol δ is the preferred polymerase for the D-loop extension during homologous recombination repair^33. Thus, we investigated the effect of zelpolib on HR efficiency. We used the two plasmid DR-GFP assay developed by Nakanishi et al^34, which is a modified version of the initial method^35. The first plasmid contains a mutant GFP that has lost the ability to fluoresce. The second plasmid contains the coding region of a restriction enzyme, I-SceI. The co-transfection of the two plasmids will result in the expression of I-SceI, which can digest the DR-GFP plasmid at the mutation site leading to the formation of a double strand break. […] Therefore, the percentage of fluorescent cells is the readout of the efficacy of HR. […] The efficacy of HR was analyzed about 40 hours later by flow cytometry.
The efficacy of homologous recombination was analyzed by a two-plasmids system according to published protocol^34,35. […] Cellular fluorescence for GFP was measured by flow cytometry (Beckman coulter, MoFlo XDP). About 32,000 cells were analyzed per sample. […] The experiment was repeated three more times and statistics were calculated using GraphPad prism software.

For the compound `COC(=O)c1cc(-c2ccccc2)sc1NC(=S)NNC(=O)CCc1ccc(O)c(O)c1` [zelpolib], the “EdU incorporation versus sham treatment” value with BxPC-3 cells [1] is recorded as “significant reduction of EdU incorporation”. Besides, the “inhibition of DNA fiber extension” value in the data set on BxPC-3 cells [2] (20 μM, 60 minutes exposure, cell line not stated) is reported as “about 40%”. For the same compound, in the data set on BxPC-3 cells [2] (BxPC-3, zelpolib added with CldU for 60 min), the “inhibition of ongoing cellular DNA replication (green/red fiber length ratio)” value is reported as “concentration dependent inhibition of ongoing cellular DNA replication”. Also, the cellular uptake time result in the data set on BxPC-3 cells [2] (inferred from fiber inhibition at 20 μM with 60 minutes total exposure) is “less than 30 minutes”. Moreover, in the data set with HCC1395 cells [3], the “inhibition of ongoing DNA replication (green/red fiber length ratio)” value was “significant inhibition of ongoing DNA replication”. Moreover, the “sensitisation of HCC1395 cells to Rucaparib” value in the data set on HCC1395 cells [4] (difference statistically significant up to 25 μM) was “behaved similarly to zelpolib and Niraparib combination”. Moreover, in the data set with HCC1395 cells [4] (differences significant up to 20 μM), the “sensitisation of HCC1395 cells to Niraparib” value is on record as “increased the sensitivity of HCC1395 cells to Niraparib across the whole range of concentrations”. Further, in the data set on HEK 293T cells (20 μM zelpolib), the “reduction in HR efficacy” value is recorded as “comparable to those induced by siRNA knockdown of BRCA1 or BRCA2 individually”. The “inhibition of homologous recombination (percentage of GFP fluorescent cells)” value with HEK 293T cells (two concentrations, about 40 hours) is recorded as “dose-dependent inhibition of HR”.
